In general, Ki refers to a measure of affinity in units of concentration, obtained from inhibition or displacement. Higher therefore signals a looser hold on the target.

Structures are written as SMILES.

5-HT2A receptor, sequence (P28223 whole entry): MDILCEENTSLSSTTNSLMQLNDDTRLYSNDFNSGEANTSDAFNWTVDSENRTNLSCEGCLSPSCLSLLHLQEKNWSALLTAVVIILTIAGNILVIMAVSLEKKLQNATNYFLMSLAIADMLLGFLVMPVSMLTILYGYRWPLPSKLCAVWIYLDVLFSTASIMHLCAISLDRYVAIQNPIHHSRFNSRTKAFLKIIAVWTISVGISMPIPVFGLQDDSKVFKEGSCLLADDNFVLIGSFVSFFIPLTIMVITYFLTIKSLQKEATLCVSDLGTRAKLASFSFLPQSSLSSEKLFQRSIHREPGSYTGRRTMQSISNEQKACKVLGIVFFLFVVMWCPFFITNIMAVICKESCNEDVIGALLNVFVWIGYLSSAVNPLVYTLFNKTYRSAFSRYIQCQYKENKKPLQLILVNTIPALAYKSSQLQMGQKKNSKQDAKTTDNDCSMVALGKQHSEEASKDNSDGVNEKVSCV

The first test addresses 5-HT2A receptor (Homo sapiens (Human), UniProt P28223). In words: Receptor Selection and Amplification (R-SAT) functional antagonist assay.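 Further: Read-out is β-galactosidase marker gene activity with ONPG substrate, measured after five days of growth in 96-well plates holding the test compound.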
Conditions: not given
For `CC(C)COc1ccc(CC(=O)N(Cc2ccc(C(F)(F)F)cc2F)C2CCN(C)CC2)cc1.O=C(O)C(F)(F)F` [Compound 69], the “5-HT2a pKi” value came out at 7.7.
Turning to `CN1CCC(N(Cc2ccc(F)cc2F)C(=O)OCc2ccc(OC(C)(C)C)cc2)CC1.O=C(O)C(F)(F)F` [Compound 72], the “5-HT2a pKi” value is 10.0.
With `CN1CCC(N(Cc2ccc(F)cc2F)C(=O)OCc2ccc(C(C)(F)F)cc2)CC1.O=C(O)C(F)(F)F` [Compound 73], the “5-HT2a pKi” value is on record as 9.4.
In the case of `CC(C)Oc1ccc(COC(=O)N(Cc2ccc(C(F)(F)F)cc2Cl)C2CCN(C)CC2)cc1.O=C(O)C(F)(F)F` [Compound 78], the “5-HT2a pKi” value amounted to 7.6.
`CC(C)Oc1ccc(COC(=O)N(Cc2ccc(F)cc2C(F)(F)F)C2CCN(C)CC2)cc1` [Compound 81]: the inhibitory constant (Ki) is 2000 µM.

Staying with this test, now noted: R-SAT, transfected NIH3T3 cells; guidance: high affinity pKi≥8.4, moderate affinity pKi≥7.7.
Take `Cc1ccc(CN(C(=O)OCc2ccc(OC(C)C)cc2)C2CCN(C)CC2)c(F)c1` [Compound 68, [4-(propan-2-yloxy)phenyl]methyl N-[(2-fluoro-4-methylphenyl)-methyl]-N-(1-methylpiperidin-4-yl)carbamate]: the “5-HT2a pKi” value stood at 7.3.
For `CC(C)Oc1ccc(COC(=O)N(Cc2c(F)cc(Cl)cc2F)C2CCN(C)CC2)cc1` [Compound 74], the “5-HT2a pKi” value is 9.1.
Still for that read-out and setting: the result for `COc1cc(CN(C(=O)OCc2ccc(OC(C)C)cc2)C2CCN(C)CC2)ccc1Cl.O=C(O)C(F)(F)F` [Compound 75] reads 6.8; that for `CC(C)Oc1ccc(COC(=O)N(Cc2ccc(C(F)(F)F)cc2F)C2CCN(C)CC2)cc1.O=C(O)C(F)(F)F` [Compound 79], 8.4.
The same measure, in the same setting: the same measure for `CC(C)Oc1ccc(COC(=O)N(Cc2cc(F)c(F)cc2F)C2CCN(C)CC2)cc1` [Compound 80]: 7.8; for `CC(C)COc1ccc(COC(=O)N(Cc2ccc(F)cc2O)C2CCN(C)CC2)cc1` [Compound 82, [4-(2-methylpropoxy)phenyl]methyl N-[(4-fluoro-2-hydroxyphenyl)methyl]-N-(1-methylpiperidin-4-yl)carbamate]: 7.8.

For the origin of these results see patent US11440884B2, “Compounds, salts thereof and methods for treatment of diseases” (ACADIA PHARMACEUTICALS INC., priority 2017, dated 2022).
